In patent US20250127759A1, “METHODS AND DOSING REGIMENS COMPRISING A CDK2 INHIBITOR FOR THE TREATMENT OF CANCER” (PFIZER INC., priority 2021, published 2025):

Tests used:
[1] = tested on: HCC1428; test: In vivo efficacy, HCC1428 breast cancer model; design: species or system mice; conditions: Day 42, 150 mg/kg BID PO, 150 mg/kg
Method: The HCC1428 model was established by implanting passage 4 tumor fragments into recipient mice. To establish the HCC1428 donor mice, tumor cells (5×10^6 cell/mouse with 50% Cultrex® Basement Membrane Matrix) were subcutaneously implanted in female NSG mice. […] All mice received treatment continuously until Day 42. TGI was assessed on Day 42 post first dose.

[2] = tested on: OVCAR3 cells; test: Proliferation inhibition, OVCAR3; type: cell-based; conditions: Homo sapiens, OVCAR-3, 168 h, treated for 7 days
Method: Anti-proliferative activity was measured in cells treated for 7 days with PF-07104091 in OVCAR3 cells, Rb mutant NCI-H526 SCLC cells, and both HR-positive HER2-negative MCF7 and the subline MCF7-PalboR (resistant to palbociclib).

[3] = Nonclinical toxicity study, mouse; type: in vivo
Method: The selection of the starting dose and regimen was based on the nonclinical toxicology and PK results in accordance with the ICH S9 Guidance. Results from nonclinical toxicity studies indicate the STD10 of PF-07104091 in mouse was 150 mg/kg after BID oral administration. The human equivalent dose for the STD10 in mouse is approximately 729 mg BID (assuming a body weight of 60 kg). Per ICH-S9 guidance, one-tenth of the STD10 can be considered the appropriate starting dose. Given the predicted human t % of approximately 4 hours, the starting dose has been selected to be 75 mg BID. The human AUC0-12 hr of PF-07104091 at the proposed starting oral dose of 75 mg BID is predicted to be ˜6.5% of the observed AUC0-12 hr at the STD10 in mouse (150 mg/kg BID) and ˜80% of the observed AUC0-12 hr at the HNSTD in dog (15 mg/kg BID).

[4] = tested on: MCF7 cells; test: Cell cycle distribution and DNA synthesis, MCF7; type: cell-based; conditions: 72-hour treatment with 300 nM
Method: The effect of PF-07104091 on cell cycle distribution and DNA synthesis was determined following 72-hour treatment with 300 nM PF-07104091.

[5] = tested on: MCF7 Cells; test: Combination cell proliferation assay, MCF7; type: cell-based, human
Method: The combination effects of PF-07104091 with palbociclib were evaluated in a cell proliferation assay with MCF7 and T47D BC cell lines. […] Drug combinations were analyzed using the Dose Equivalence Principle, and the Loewe Volume score. When modeling synergy using the Dose Equivalence Principle, the Loewe Volume score for the combination compounds should be greater than the compound self-cross controls, and the Combination Index score for the combination compounds should be less than compound self-cross controls. […] Furthermore, the isobolograms set to an anti-proliferation threshold at 70% confirm a synergistic response.

[6] = In vivo efficacy, OVCAR3 ovarian cancer tumor model; conditions: female, mouse, NSG mice, po, BID, read-out: maximum tolerated dose level
Method: (§1) Female NSG (Jackson Lab) or Nu/nu (CRL) were subcutaneously implanted with tumor cells or fragments (8 mm^3 to 27 mm^3) into the dorsal region. For the MCF7 study, mice were supplemented with estrogen (sc implanted, 17β-estradiol, 0.36 mg, 90-day release pellet, Innovative Research of America, cat no. NE-121).
To establish the OVCAR3 model, tumor cells (5×10^6 cells/mouse with 50% Cultrex® Basement Membrane Matrix) were subcutaneously implanted in female NSG mice. […] PF-07104091 was administered (p.o.) BID (7 hr apart). All mice received treatment continuously for 21 days. TGI was assessed on Day 21 post first dose (or Day 66 post tumor cell implant).

[7] = In vivo efficacy, MCF7 breast cancer model; conditions: female, mouse, NSG mice, po, BID, read-out: maximum tolerated dose level
Method: as §1
The MCF7 model was established by implanting donor tumor fragments into recipient mice. To establish the MCF7 donor mice, tumor cells (5×10^6 cells/mouse with 50% Cultrex® Basement Membrane Matrix) were subcutaneously implanted in female NSG mice. […] 150 mg/kg, po, BID is the maximum tolerated dose level in this model. PF 07104091 was administered (p.o.) BID (7 hr apart). TGI was assessed on Day 21 post first dose (or Day 42 post tumor fragment implant).

[8] = tested on: phosphorylation of Rb at Ser807/811; test: Modulation of pRb Ser807/811 in OVCAR3 cells; type: cell-based; conditions: Homo sapiens, OVCAR-3; enriched G1/S phase CCNE1-amplified OVCAR3 cells; mean; read-out: Modulation of pRB Serine 807/811 IC50
Method: The cellular activity of PF-07104091 was evaluated by measuring phosphorylation of Rb at Ser807/811 following treatment of enriched G1/S phase CCNE1-amplified OVCAR3 ovarian carcinoma cells.

Question: Which TGI % [1] does the source give for COCc1cc(C(=O)Nc2cc([C@H]3CC[C@@H](OC(=O)NC(C)C)C3)[nH]n2)n(C)n1 [PF-07104091, (1R,3S)-3-[3-({[3-(methoxymethyl)-1-methyl-1H-pyrazol-5-yl]carbonyl}amino)-1H-pyrazol-5-yl]cyclopentyl propan-2-ylcarbamate] here?
Answer: 95%

Question: And the IC50 [2]?
Answer: 118 nM

Question: What about the “human equivalent dose for the STD10 in mouse” value ([3]; assuming a body weight of 60 kg) of the same compound?
Answer: approximately 729 mg BID

Question: And the STD10 ([3]; mouse, BID oral administration)?
Answer: 150 mg/kg

Question: And the cell cycle arrest [4]?
Answer: significant G2/M arrest

Question: What about the “S phase (cell cycle distribution)” value ([4]; p≤0.05 versus vehicle) of the same compound?
Answer: Significant S phase reduction

Question: And the “Loewe Volume” value [5]?
Answer: −0.08

Question: And the “Best CI” value ([5]; Best CI Level 70)?
Answer: 1.04

Question: And the MTD at 21 days [6]?
Answer: 175 mg/kg

Question: And the MTD at 21 days [7]?
Answer: 150 mg/kg

Question: And the IC50 [8]?
Answer: 144 nM
